The subject of series [1] is CHO cells grown with Ac4ManNAz (azide-labeled glycans). Briefly: Cell-surface labeling of azido glycans on CHO cells and imaging by fluorescence microscopy. It is filed as cell-based, Chinese hamster. How it is done:
BARAC-Fluor (compound 17) was evaluated as a reagent for direct fluorescence imaging of live Chinese hamster ovary (CHO) cells. CHO cells grown either in the presence or absence of 50 μM Ac4ManNAz were treated with […] BARAC-Fluor (compound 17) for 5 min at rt, washed and then imaged (FIG. 9(a)-(h)).
CHO cells were incubated for 3 days in medium containing 50 μM Ac4ManNAz in an eight-well LabTek II chambered cover glass (Nunc). The medium was poured off, and the cells were washed three times with 200 μl of FACS buffer. The cells then were treated with a solution of BARAC-Fluor, diluted from a 1 mM stock solution in DMSO, in FACS buffer for 5 minutes at 5 μM at room temperature. The cells were also treated with Hoechst 33342 dye to stain the nucleus (1:1,000 dilution in medium of a 1 mg/ml stock solution in DMSO) as soon as possible after the addition of BARAC-Fluor. The cells washed four times with 200 μl of FACS buffer, and imaged at room temperature.
For the no-wash experiment the cells were treated as before, but were incubated in a 250 nM solution of BARAC-Fluor in FACS-buffer. After 25 minutes at room temperature Hoechst 33342 dye (1:1,000 dilution in medium of a 1 mg/ml stock solution in DMSO) was added. After an additional 5 minutes, the cells were imaged without washing away excess reagent. […]

Series [2] is described as follows: Reaction rate of BARAC with benzyl azide (1H NMR kinetics). In kind it is physicochemical. The protocol: The reactivity of BARAC (compound 15) was studied using benzyl azide as a model substrate. The second-order rate constant in acetonitrile at room temperature (rt) was 0.96 M^−1s^−1 (see FIG. 1), over 12-fold higher than the rate constant for DIFO under identical conditions and over 450 times higher than for an unactivated cyclooctyne. The half-life for the reaction of equimolar amounts of BARAC with benzyl azide at 10 mM was about 45 s at rt.
The reaction of BARAC (compound 15) and benzyl azide was monitored by ^1H NMR for 30 min. at 25° C. BARAC and benzyl azide were separately dissolved in CD3CN and mixed together in a 1:1 ratio at concentrations at 10 mM. A 2:1 ratio was used to determine the exact ratio of reagents based on remaining starting material upon completion of the reaction. The percent conversion was calculated by the disappearance of BARAC and benzyl azide relative to the formation of product as determined by integration. No products other than the two regioisomers of addition were apparent by ^1H NMR. The triazole isomers were produced in a ˜1:1 ratio. The second-order rate constant was determined by plotting 1/[compound 15] versus time. The plot was fit to a linear regression and the slope corresponds to the second-order rate constant. Shown in FIG. 1 are data from four replicate experiments.

Series [3] is described as follows: Reaction rate of BARAC with 2-azido-N-isopropylacetamide (1H NMR kinetics). In kind it is physicochemical. The settings on record: CD3CN, 25° C., 1:1 at 9.2 mM, three replicates. The protocol:
The reaction of BARAC (compound 15) and 2-azido-N-isopropylacetamide was monitored by ^1H NMR for 30 min. at 25° C. BARAC and the azidoacetamide were separately dissolved in CD3CN and mixed together in a 1:1 ratio at concentrations at close to 10 mM (9.2 mM). Hexamethyldisilane (approx 0.3 equiv) was used as an internal standard. The percent conversion was calculated by the ratio between the formation of products and hexamethyldisilane as determined by integration. No products other than the regioisomers of addition were apparent by ^1H NMR. The ratio of triazole isomers is complicated by rotamers. The second-order rate constant was determined by plotting 1/[compound 15] versus time. The plot was fit to a linear regression and the slope corresponds to the second-order rate constant. Shown are data from three replicate experiments.

The nature of series [4]: Potential background reaction of BARAC with glutathione. It is filed as physicochemical. To be noted: 5 mM glutathione in CD3CN:D2O (1:2), 2 mM BARAC, rt.
The nature of series [5]: Stability to chromatography and storage. It is filed as physicochemical. To be noted: traditional chromatography; storage at room temperature. The source says: Oxidation of indole (compound 10) with excess m-CPBA opened the central rings to give the cyclic keto-amide (compound 11), which was unstable to silica-gel purification. These reaction conditions left the terminal alkene untouched. Treatment of the potassium enolate of ketone (compound 11) with trifluoromethanesulfonyl anhydride gave compound 12. Selective reaction of the terminal alkene with a nitrile oxide generated in situ from chlorooxime (compound 13) installed a linker for conjugation to a probe molecule as reported by Huisgen, R. and Gutsmiedl, et al. Huisgen, R. Angew. Chem. Int. Ed., (1963), 2, 565-598; and Gutsmiedl, K.; Wirges, C. T.; Ehmke, V.; Carell, T. Org. Lett., 2009, 11, 2405-2408. Reaction of compound 14 with CsF introduced the strained alkyne in under 30 min at rt. The synthesis of BARAC (compound 15) from compound 9 was accomplished in 6 steps in 18% overall yield (see FIG. 11).

Series [6] concerns Jurkat cells treated with Ac4ManNAz (cell-surface azido sialic acids, SiaNAz).
Procedure: Cultured Jurkat cells were treated with peracetylated N-azidoacetyl mannosamine (Ac4ManNAz) to introduce the corresponding azido sialic acids (SiaNAz) into their cell-surface glycoproteins and lipids.
Jurkat cells were incubated in untreated media or media containing 25 μM Ac4ManNAz. After 3 d, the cells were twice concentrated (500×g, 3 min, 4° C.) and resuspended in 10 mL FACS buffer (PBS containing 1% FCS, 2×10 mL) and cells (approx 350,000 per a well) were placed in a 96 well V-bottom plate. The cells were concentrated by centrifugation (2500×g, 3 min, 4° C.), resuspended in 200 μL cold FACS buffer, and again concentrated by centrifugation (2500×g, 3 min, 4° C.). […] After 1 h, the cells were thrice concentrated by centrifugation (2500×g, 3 min, 4° C.) and resuspended in 200 μL cold FACS buffer. Following and additional concentration by centrifugation (2500×g, 3 min, 4° C.), cells were resuspended in FACS buffer (100 μL) containing FITC-avidin (1:200 dilution of 1 mg/mL stock, Sigma-Aldrich) and incubated in the dark at 4° C. for 15 min. Following the incubation, cells were concentrated by centrifugation, resuspended in 200 μL cold FACS buffer, concentrated by centrifugation, and another FITC-avidin incubation was performed. After the second FITC-avidin labeling, the cells were thrice concentrated by centrifugation (2500×g, 3 min, 4° C.) and resuspended in 200 μL cold FACS buffer. The cells were then diluted to 400 μL for flow cytometry analysis. Flow cytometry was performed on a BD Biosciences FACSCalibur flow cytometer equipped with a 488-nm argon laser. All flow cytometry experiments were performed with three replicate samples.
Jurkat cells were incubated in the presence or absence of 25 μM Ac4ManNAz for 3 d. […] MFI=mean fluorescence intensity and has arbitrary units (Au).
Jurkat cells were incubated with (+Az) or without (−Az) 25 M Ac4ManNAz for 3 days. The cells were labeled with 1 μM cyclooctyne-biotin for various times and then treated with FITC-avidin. […] The degree of labeling was quantified by flow cytometry. The level of fluorescence was reported in mean fluorescence intensity (MFI, arbitrary unit). Error bars represent the standard deviation of three replicate experiments. […] MFI reported as difference between signal of cells +Az and signal of cells −Az.
Series [7] has as its system Jurkat cells. To be noted: 1 μM, 1 h at 25° C., 7-AAD (FIG. 5).
Procedure: Jurkat cells were incubated in the presence (+Az, black bar) or absence (−Az, gray bar) of Ac4ManNAz for 3 d. […] Prior to flow cytometry analysis, half the cells were treated with 7-amino-actinomycin D (7-AAD) following the procedure reported at http://www.bdbiosciences.com/external_files/pm/doc/tds/cell_bio/live/web_enabled/68981E—559925.pdf. The samples were diluted and analyzed by flow cytometry. The error bars represent standard deviations from three replicate samples.
In all plots, the x-axis indicates the degree of cell-surface glycan labeling as measured by FITC fluorescence (FL1). For the plots shown if FIG. 6(a)-(d), the y-axis represents the degree of 7-AAD (FL3, cell viability marker).

Where “and” joins values, the source holds several entries; their conditions need not be identical. Equal values may be shown once.

Regarding `O=C(OCc1ccc(C2=NOC(CN3C(=O)c4ccccc4C#Cc4ccccc43)C2)cc1)N1CCN(C(=O)c2ccccc2-c2c3ccc(=O)cc-3oc3cc(O)ccc23)CC1` (stereo not drawn) [BARAC-Fluor], the “labeling in no-wash experiment” value in series [1] (250 nM, 30 min at rt, imaged without washing (FIG. 9(i)-(p))) was “significant labeling above the background”. Further, the “cell surface fluorescence of azide-labeled cells” value in series [1] (5 μM, 5 min at rt, washed, 50 μM Ac4ManNAz (FIG. 9(a)-(h))) is “significant cell surface fluorescence”.
With `O=C1c2ccccc2C#Cc2ccccc2N1CC1CC(c2ccc(CO)cc2)=NO1` (stereo not drawn) [BARAC], the second-order rate constant in series [2] (benzyl azide, acetonitrile (CD3CN), rt (25° C.), 1:1 at 10 mM) was 0.96 M⁻¹ s⁻¹ and 0.96 ± 0.04 M⁻¹ s⁻¹; in series [3], 0.64 ± 0.06 M⁻¹ s⁻¹. The “times higher rate constant than an unactivated cyclooctyne” value in series [2] (versus unactivated cyclooctyne) is “over 450 times”. Further, the half-life at 2 mM in series [4] was 24 h. The stability entry in series [5] was “stable to traditional chromatography and storage at room temperature”.
Take BARAC-biotin: the “cell labeling at low concentration” value in series [6] (50 nM, 1 h, Jurkat (FIG. 3)) was “significant cell labeling”. The “labeling compared with DIFO-biotin and DIBO-biotin” value in series [6] (1 μM cyclooctyne-biotin, after 1 h (FIG. 8(b))) was “more labeling than DIFO-biotin and DIBO-biotin”. The “fold higher signal than either DIFO-biotin or DIBO-biotin” value in series [6] (1 μM, after 1 min (FIG. 8(c))) is 10 fold. The azide-specific cell labeling entry in series [6] (Jurkat ±25 μM Ac4ManNAz 3 d, reagent 1 h, versus FITC-avidin alone (FIG. 3)) was “robust azide-specific labeling with no significant background labeling”. Further, in series [7], the “cytotoxicity compared to cells treated with no cyclooctyne reagent” value is recorded as “not accompanied by any cytotoxicity”.

For orientation: half-life means the time needed for the level to fall by half in the phase considered. Read a low half-life as fast loss.

For the origin of these results see patent US8703936B2, “Compositions and methods for modification of biomolecules” (The Regents of the University of California, priority 2010, dated 2014).
